# In patent US20070265341A1, “COMPOSITIONS AND METHODS FOR TREATING EYE DISORDERS AND CONDITIONS” (The Schepens Eye Research Institute Inc., priority 2004, published 2007):
# Read-outs that look alike come from different tables or passages of the source.
# Legend:
# [1] = test system: TNF-α; experiment: Real time PCR of cytokine transcripts in dry eye cornea and conjunctiva; assay type: in vivo, mouse
# From the text: (§1) Corneal and conjunctival expression of pro-inflammatory cytokines IL-1α and TNF-α Th1 cytokines (IL-2 and IFN-γ) and Th2 cytokines (IL-4, IL-6 and IL-10), relative to the normal eyes, was studied using quantitative real time PCR. Total RNA was isolated from the whole mount corneal and conjunctival tissues (two pooled corneas per group and six pooled conjunctivae per group). A combined method of total RNA isolation was employed, using Trizol (Invitrogen, CA, catalog #15596-026) for tissue homogenization on ice, precipitation of RNA in the aqueous phase in 70% ethanol followed by subsequent extraction and purification using RNeasy Microkit (Qiagen, CA, catalogue # 74004). Isolated RNA was stored at −80° C. until future use.
# (§2) The first strand cDNA was synthesized from 300 ng of total RNA with random hexamers using SuperScript™ III Reverse Transcriptase (Invitrogen, CA, Catalogue #18080) according to the manufacturer's protocol. Real-time PCR was performed with FAM-MGB dye labeled pre-designed primers (Applied Biosystems, CA) for IL-1-α (catalogue # 4329586), TNF-α (Assay ID Mm99999068_ml) and GAPDH (Assay ID Mm99999915_g1), IL-2 (Assay ID […]), IL-4 (Assay ID Mm00445259), IL-6 (Assay ID Mm00446190_ml), IL-10 (Mm00439616_ml), IFN-γ (Assay ID Mm00801778 ml) according to manufacturer's recommendations. 1 ul of cDNA was loaded in each well and assays were performed in duplicates. A nontemplate control was included in all the experiments to evaluate DNA contamination of the isolated RNA and the reagents used. The results of quantitative real-time PCR were analyzed by the comparative threshold cycle (CT) method and normalized by GAPDH as an internal control. The relative expression of cytokines at different times points was compared using one way ANOVA, post hoc test LSD with p<0.05 deemed significant.
# (§3) Six to 10 week old C57BL/6 mice (Taconic Farms, German-town, NY) were used. The protocol was approved by the Schepens Eye Research Institute Animal Care and Use Committee, and all animals were treated according to the ARVO Statement for the Use of Animals in Ophthalmic and Vision Research. Dry eye was induced by placement of mice in a CEC as described above, modified with subcutaneous (“SQ”) administration of scopolamine to lead to maximal ocular dryness (Barabino S, Shen L, Chen L, Rashid S, Rolandao M, Dana M R. The controlled-environment chamber: a new mouse model of dry eye. Invest Opthalmol Vis Sci. 2005; 46: 2766-71). Briefly, 0.5 mg/0.2 ml of scopolamine hydrobromide (Sigma-Aldrich, St. Louis, Mo.) was injected SQ in the dorsal skin of mice at 9 am, 12 pm, and 3 pm; the overnight dose at 6 pm was increased to 0.75 mg/0.3 ml. The mice were placed in the CEC where they were continuously exposed to a relative humidity (RH) of <30%, airflow of 15 litres/minute and a constant temperature of 21-23° C. as described previously (Barabino et al, 2005). Dry eye was induced for variable lengths of time, ranging from 2-10 days. Age-matched mice were used as normal controls (RH>80%, no airflow and temperature 21-23° C., no scopolamine administration).
# (§4) Forty eight hours after dry eye induction, each eye was randomized to receive one of the formulations, or the vehicle. A 1 ul eye drop was applied topically to the eye of unanaesthetized mouse once daily, from 48 hours to day 4 (total 3 doses) or to day 9 (total 8 doses) depending on the time point studied. The untreated group received no eye drops. Ocular signs of dry eye were measured 24 hours after the last dose (day 5 or day 10) following which mice were euthanized for cellular and molecular studies.
# [2] = test system: IL-1α; experiment: as above; assay type: in vivo, mouse
# From the text: as §1, §2, §3, §4
# [3] = test system: C57BL/6 mice; experiment: Corneal fluorescein staining (NEI grading), dry eye model (CEC + SQ scopolamine); assay type: in vivo, mouse
# Description: Six to 10 week old C57BL/6 mice (Taconic Farms, German-town, NY) were used. The protocol was approved by the Schepens Eye Research Institute Animal Care and Use Committee, and all animals were treated according to the ARVO Statement for the Use of Animals in Ophthalmic and Vision Research. […] The controlled-environment chamber: a new mouse model of dry eye. […] Louis, Mo.) was injected SQ in the dorsal skin of mice at 9 am, 12 pm, and 3 pm; the overnight dose at 6 pm was increased to 0.75 mg/0.3 ml. The mice were placed in the CEC where they were continuously exposed to a relative humidity (RH) of <30%, airflow of 15 litres/minute and a constant temperature of 21-23° C. as described previously (Barabino et al, 2005). Dry eye was induced for variable lengths of time, ranging from 2-10 days. […] Formulations tested included a) 0.2% alpha-linolenic acid (ALA, n-3); b) 0.2% linoleic acid (LA, n-6); and c) 0.1% ALA: 0.1% LA (1:1 ratio of n3:n6, total amount of fatty acid being same as in individual fatty acid formulations). […] Forty eight hours after dry eye induction, each eye was randomized to receive one of the formulations, or the vehicle. A 1 ul eye drop was applied topically to the eye of unanaesthetized mouse once daily, from 48 hours to day 4 (total 3 doses) or to day 9 (total 8 doses) depending on the time point studied. The untreated group received no eye drops. Ocular signs of dry eye were measured 24 hours after the last dose (day 5 or day 10) following which mice were euthanized for cellular and molecular studies. […] Eyes were flushed by sterile PBS to remove excess fluorescein at 3 minutes, and examined with a slit lamp biomicroscope in cobalt blue light. Punctate staining was recorded in a masked fashion with a standardized (National Eye Institute) grading system of 0 to 3 for each of the five areas in which the corneal surface was divided. […] Kruskal Wallis and Mann Whitney tests (unpaired data set), and Wilcoxin test (paired data set) were used for statistical analysis.
# [4] = test system: Balb/c mice; experiment: Corneal fluorescein staining (NEI grading), dry eye model (CEC + scopolamine patch); assay type: in vivo, mouse; settings: scopolamine alone, Day 3 and Day 6
# From the text: (§5) Normal healthy 6 to 10 weeks old female Balb/c mice (Taconic Farms, German-town, NY) can be induced to have dry eye by continuously exposing them to dry environment in a controlled environmental chamber (CEC), described below. Mice in CEC were continuously exposed throughout the duration of the experiments, to low relative humidity of less than 30% (mean and standard deviation 19%±4%), high airflow (15 liters/minute) and constant temperature (21-23 Celsius). Mice in normal cages were exposed to relative humidity over 70% (mean and SD 78%±5%), no airflow and same temperature. In addition, the mice placed in CEC were also treated with scopolamine, active agent that causes pharmacological inhibition of tear secretion. […]
# The cornea was examined with a slit lamp biomicroscope using cobalt blue light 3 minutes after the fluorescein instillation. Punctuate staining was recorded in a masked fashion using a standardized National Eye Institute (NEI) grading system of 0-3 for each of the five areas in which the corneal surface has been divided (FIG. 2). […]
# (§6) Dry eye was induced by combined environmental and pharmacological effect (placing the mice in CEC and applying scopolamine patch for 6 days). […] Signs of dry eye were assessed at the end of Day 6, twelve hours after the last dose. […] […]
# [5] = test system: Balb/c mice; experiment: Cotton thread test of tear production, dry eye model (CEC + scopolamine patch); assay type: in vivo, mouse; settings: Scop patch alone for 6 days, Day 3 and Day 6
# From the text: as §5, with “secretion. The combination of CEC and scopolamine produces severe dry eye.” for “secretion.”
# Tear production was measured with cotton thread test, impregnated with phenol red (Zone-Quick, Lacrimedics, Eastsound, Wash.). […] The tear distance in mm is read under a microscope (Zeiss S4, West Germany) using the scale of an hemacytometer. Tear secretion was measured in three groups of mice (FIG. 1). […]
# as §6
# [6] = test system: CD11b+ cells
smiles,measurement,setting,value
"CCCCC/C=C\C/C=C\CCCCCCCC(=O)O [LA, 9,12-octadecandienoic acid]","TNF-α expression, between untreated, vehicle and treated eyes",[1]; cornea and conjunctiva,No significant difference
same,"IL-1α expression, between untreated, vehicle and treated eyes",[2]; cornea and conjunctiva,No significant difference
same,corneal fluorescein staining scores compared to vehicle-treated eyes,[3]; day 5,no significant difference
same,corneal fluorescein staining scores compared to vehicle and untreated eyes,[3]; day 10,no difference
"CN1[C@@H]2C[C@@H](OC(=O)[C@H](CO)c3ccccc3)C[C@H]1[C@@H]1O[C@@H]12 [Scop patch, scopolamine]",corneal fluorescein staining compared to the controls,[4],significant increase
same,tear secretion compared to the baseline,[5],markedly decreased
"CCC=CCC=CCC=CCCCCCCCC(=O)O [ALA, 9, 12, 15 octadecatrienoic acid]",conjunctival expression of TNF-α compared to untreated eyes,"[1]; conjunctiva, day 10",significantly decreased
same,corneal TNF-α expression compared to untreated and vehicle-treated corneas,"[1]; cornea, day 5",significant decrease
same,corneal TNF-α expression,"[1]; cornea, day 10",decreased trend
same,conjunctival IL-α expression,"[2]; conjunctiva, day 10",downward trend
same,corneal IL-1α expression compared to untreated corneas,"[2]; cornea, day 10",significant decrease
same,decrease in CD11b+ cell number compared to the untreated group,"[6]; center of cornea, day 10",42%
same,decrease in CD11b+ cell number compared to the vehicle,"[6]; center of cornea, day 10",37%
same,"number of CD11b+ cells compared to untreated, vehicle, LA and combined groups","[6]; center of cornea, day 10",significantly decreased
same,number of CD11b+ cells relative to normal (non dry eye induced) cornea,"[6]; center of whole mount cornea, confocal images",comparable to the normal
same,CD11b+ cell number compared to untreated eyes,"[6]; periphery of cornea, day 10",significant decrease
same,CD11b+ cell number compared to vehicle,"[6]; periphery of cornea, day 10",no significant difference
same,decrease in CD11b+ cell number compared to the untreated group,"[6]; periphery of cornea, day 10",37%
same,decrease in CD11b+ cell number compared to the vehicle,"[6]; periphery of cornea, day 10",21%
same,decrease in corneal fluorescein staining scores compared to the vehicle,"[3]; day 5, once daily drop from 48 hours",45%
same,decrease in corneal fluorescein staining scores compared to the vehicle,[3]; day 10,62%
same,decrease in corneal fluorescein staining scores compared to untreated control eyes,[3]; day 10,71%
